Laboratory results taken from patent US20220187282A1, “CARDIOMYOCYTE PROLIFERATION” (The Council of the Queensland Institute of Medical Research, priority 2019, published 2022).
Where two headings read alike, the source gives them in different places.

What was measured:
Type in all cases: biochemical
[1] = target: kinases (Homo sapiens, UniProt Q00537); conditions: CDK17/cyclin Y FRET-Z-Lyte SP; Test Conc(μM):ATP Conc(μM) 1:50
[2] = target: kinases (Homo sapiens, UniProt P07332); conditions: FES (FPS) FRET-Z-Lyte SP; Test Conc(μM):ATP Conc(μM) 1:25
[3] = target: kinases (Homo sapiens, UniProt Q13557); conditions: CAMK2D FRET-Z-Lyte SP; Test Conc(μM):ATP Conc(μM) 1:5
[4] = target: kinases (Homo sapiens, UniProt Q15746); conditions: MYLK (MLCK) FRET-Lantha SP; Test Conc(μM) 1
[5] = target: kinases (Homo sapiens, UniProt O43781); conditions: DYRK3 FRET-Z-Lyte SP; ATP Conc(μM):Test Conc(μM) 1:5
[6] = target: kinases (Homo sapiens, UniProt P54764); conditions: EPHA4 FRET-Z-Lyte SP; Test Conc(μM):ATP Conc(μM) 1:100
[7] = target: kinases (Homo sapiens, UniProt P29317); conditions: EPHA2 FRET-Z-Lyte SP; Test Conc(μM):ATP Conc(μM) 1:75
[8] = target: kinases (Homo sapiens, UniProt P53779)
[9] = target: kinases (Homo sapiens, UniProt P78527); conditions: DNA-PK FRET-Z-Lyte SP; Test Conc(μM):ATP Conc(μM) 1:25
[10] = target: kinases (Homo sapiens, UniProt O75460); conditions: ERN1 FRET-Lantha SP; Test Conc(μM) 1
[11] = target: kinases (Homo sapiens, UniProt P27448); conditions: MARK3 FRET-Z-Lyte SP; Test Conc(μM):ATP Conc(μM) 1:5
[12] = target: kinases (Homo sapiens, UniProt O14936); conditions: CASK FRET-Lantha SP; Test Conc(μM) 1
[13] = target: kinases (Homo sapiens, UniProt P54760); conditions: EPHB4 FRET-Z-Lyte SP; Test Conc(μM):ATP Conc(μM) 1:100
[14] = target: kinases (Homo sapiens, UniProt Q9BTU6); conditions: PI4K2A *Mn* FRET-Adapta SP; Test Conc(μM):ATP Conc(μM) 1:10
[15] = target: kinases (Homo sapiens, UniProt Q6DT37); conditions: CDC42 BPG FRET-Z-Lyte SP; Test Conc(μM):ATP Conc(μM) 1:5
[16] = target: kinases (Homo sapiens, UniProt Q9UM73); conditions: ALK FRET-Z-Lyte SP; Test Conc(μM):ATP Conc(μM) 1:25
[17] = target: kinases (Homo sapiens, UniProt Q13464); conditions: ROCK1 FRET-Z-Lyte SP; Test Conc(μM):ATP Conc(μM) 1:5
[18] = target: kinases (Homo sapiens, UniProt Q9NYY3); conditions: PLK2 FRET-Z-Lyte SP; Test Conc(μM):ATP Conc(μM) 1:25
[19] = target: kinases (Homo sapiens, UniProt O43293); conditions: DAPK3 (ZIPK) FRET-Z-Lyte SP; Test Conc(μM):ATP Conc(μM) 1:5
[20] = target: kinases (Homo sapiens, UniProt Q86Z02); conditions: HIPK1 (Myak) FRET-Z-Lyte SP; Test Conc(μM):ATP Conc(μM) 1:5
[21] = target: kinases (Homo sapiens, UniProt P36507)
[22] = target: kinases (Homo sapiens, UniProt Q13043); conditions: STK4 (MST1) FRET-Z-Lyte SP; Test Conc(μM):ATP Conc(μM) 1:50
[23] = target: kinases (Homo sapiens, UniProt Q96PF2); conditions: STK22B (TSSK2) FRET-Z-Lyte SP; Test Conc(μM):ATP Conc(μM) 1:5
[24] = target: kinases (Homo sapiens, UniProt Q9UBF8); conditions: PI4KB FRET-Adapta SP; Test Conc(μM):ATP Conc(μM) 1:5
[25] = target: kinases (Homo sapiens, UniProt Q9BXA7); conditions: STK22D (TSSK1) FRET-Z-Lyte SP; Test Conc(μM):ATP Conc(μM) 1:10
[26] = target: kinases (Homo sapiens, UniProt Q8WXR4); conditions: MYO3B FRET-Lantha SP; Test Conc(μM) 1
[27] = target: kinases (Homo sapiens, UniProt P54753); conditions: EPHB3 FRET-Z-Lyte SP; Test Conc(μM):ATP Conc(μM) 1:75
[28] = MAPK10 (JNK3) FRET-Lantha SP, Test Conc(μM) 1
[29] = MAPK10 (JNK3)Cascade Z-Lyte SP, Test Conc(μM):ATP Conc(μM) 1:100
[30] = MAP2K2 (MEK2) FRET-Lantha SP, Test Conc(μM) 1
[31] = MAP2K2 (MEK2)Cascade Z-Lyte SP, Test Conc(μM):ATP Conc(μM) 1:100

Sequence of kinases (Homo sapiens, UniProt P36507) (P36507 whole entry): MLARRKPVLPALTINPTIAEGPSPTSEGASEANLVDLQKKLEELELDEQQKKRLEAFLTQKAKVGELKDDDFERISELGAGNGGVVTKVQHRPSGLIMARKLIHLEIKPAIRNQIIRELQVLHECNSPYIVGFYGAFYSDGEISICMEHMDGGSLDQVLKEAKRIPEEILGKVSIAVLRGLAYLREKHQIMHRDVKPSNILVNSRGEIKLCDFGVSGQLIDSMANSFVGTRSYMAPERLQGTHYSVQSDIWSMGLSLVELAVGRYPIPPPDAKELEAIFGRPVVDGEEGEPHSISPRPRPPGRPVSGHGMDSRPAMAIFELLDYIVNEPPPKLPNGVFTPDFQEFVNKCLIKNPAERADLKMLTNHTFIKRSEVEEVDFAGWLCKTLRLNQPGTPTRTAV
Sequence of kinases (Homo sapiens, UniProt P53779) (P53779 whole entry): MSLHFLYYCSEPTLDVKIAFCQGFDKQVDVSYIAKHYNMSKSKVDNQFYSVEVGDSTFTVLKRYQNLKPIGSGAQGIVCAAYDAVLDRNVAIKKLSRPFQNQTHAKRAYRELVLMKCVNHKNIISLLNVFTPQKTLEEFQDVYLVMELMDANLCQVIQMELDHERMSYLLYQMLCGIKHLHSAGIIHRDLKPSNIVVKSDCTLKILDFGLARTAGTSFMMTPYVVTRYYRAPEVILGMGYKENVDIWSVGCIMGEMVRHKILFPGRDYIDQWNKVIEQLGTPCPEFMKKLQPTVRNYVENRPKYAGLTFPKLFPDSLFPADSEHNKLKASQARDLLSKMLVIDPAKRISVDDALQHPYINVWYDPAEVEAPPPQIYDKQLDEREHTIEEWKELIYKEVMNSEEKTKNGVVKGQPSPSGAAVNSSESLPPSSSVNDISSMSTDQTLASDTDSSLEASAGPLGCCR
Sequence of kinases (Homo sapiens, UniProt P78527) (P78527 whole entry): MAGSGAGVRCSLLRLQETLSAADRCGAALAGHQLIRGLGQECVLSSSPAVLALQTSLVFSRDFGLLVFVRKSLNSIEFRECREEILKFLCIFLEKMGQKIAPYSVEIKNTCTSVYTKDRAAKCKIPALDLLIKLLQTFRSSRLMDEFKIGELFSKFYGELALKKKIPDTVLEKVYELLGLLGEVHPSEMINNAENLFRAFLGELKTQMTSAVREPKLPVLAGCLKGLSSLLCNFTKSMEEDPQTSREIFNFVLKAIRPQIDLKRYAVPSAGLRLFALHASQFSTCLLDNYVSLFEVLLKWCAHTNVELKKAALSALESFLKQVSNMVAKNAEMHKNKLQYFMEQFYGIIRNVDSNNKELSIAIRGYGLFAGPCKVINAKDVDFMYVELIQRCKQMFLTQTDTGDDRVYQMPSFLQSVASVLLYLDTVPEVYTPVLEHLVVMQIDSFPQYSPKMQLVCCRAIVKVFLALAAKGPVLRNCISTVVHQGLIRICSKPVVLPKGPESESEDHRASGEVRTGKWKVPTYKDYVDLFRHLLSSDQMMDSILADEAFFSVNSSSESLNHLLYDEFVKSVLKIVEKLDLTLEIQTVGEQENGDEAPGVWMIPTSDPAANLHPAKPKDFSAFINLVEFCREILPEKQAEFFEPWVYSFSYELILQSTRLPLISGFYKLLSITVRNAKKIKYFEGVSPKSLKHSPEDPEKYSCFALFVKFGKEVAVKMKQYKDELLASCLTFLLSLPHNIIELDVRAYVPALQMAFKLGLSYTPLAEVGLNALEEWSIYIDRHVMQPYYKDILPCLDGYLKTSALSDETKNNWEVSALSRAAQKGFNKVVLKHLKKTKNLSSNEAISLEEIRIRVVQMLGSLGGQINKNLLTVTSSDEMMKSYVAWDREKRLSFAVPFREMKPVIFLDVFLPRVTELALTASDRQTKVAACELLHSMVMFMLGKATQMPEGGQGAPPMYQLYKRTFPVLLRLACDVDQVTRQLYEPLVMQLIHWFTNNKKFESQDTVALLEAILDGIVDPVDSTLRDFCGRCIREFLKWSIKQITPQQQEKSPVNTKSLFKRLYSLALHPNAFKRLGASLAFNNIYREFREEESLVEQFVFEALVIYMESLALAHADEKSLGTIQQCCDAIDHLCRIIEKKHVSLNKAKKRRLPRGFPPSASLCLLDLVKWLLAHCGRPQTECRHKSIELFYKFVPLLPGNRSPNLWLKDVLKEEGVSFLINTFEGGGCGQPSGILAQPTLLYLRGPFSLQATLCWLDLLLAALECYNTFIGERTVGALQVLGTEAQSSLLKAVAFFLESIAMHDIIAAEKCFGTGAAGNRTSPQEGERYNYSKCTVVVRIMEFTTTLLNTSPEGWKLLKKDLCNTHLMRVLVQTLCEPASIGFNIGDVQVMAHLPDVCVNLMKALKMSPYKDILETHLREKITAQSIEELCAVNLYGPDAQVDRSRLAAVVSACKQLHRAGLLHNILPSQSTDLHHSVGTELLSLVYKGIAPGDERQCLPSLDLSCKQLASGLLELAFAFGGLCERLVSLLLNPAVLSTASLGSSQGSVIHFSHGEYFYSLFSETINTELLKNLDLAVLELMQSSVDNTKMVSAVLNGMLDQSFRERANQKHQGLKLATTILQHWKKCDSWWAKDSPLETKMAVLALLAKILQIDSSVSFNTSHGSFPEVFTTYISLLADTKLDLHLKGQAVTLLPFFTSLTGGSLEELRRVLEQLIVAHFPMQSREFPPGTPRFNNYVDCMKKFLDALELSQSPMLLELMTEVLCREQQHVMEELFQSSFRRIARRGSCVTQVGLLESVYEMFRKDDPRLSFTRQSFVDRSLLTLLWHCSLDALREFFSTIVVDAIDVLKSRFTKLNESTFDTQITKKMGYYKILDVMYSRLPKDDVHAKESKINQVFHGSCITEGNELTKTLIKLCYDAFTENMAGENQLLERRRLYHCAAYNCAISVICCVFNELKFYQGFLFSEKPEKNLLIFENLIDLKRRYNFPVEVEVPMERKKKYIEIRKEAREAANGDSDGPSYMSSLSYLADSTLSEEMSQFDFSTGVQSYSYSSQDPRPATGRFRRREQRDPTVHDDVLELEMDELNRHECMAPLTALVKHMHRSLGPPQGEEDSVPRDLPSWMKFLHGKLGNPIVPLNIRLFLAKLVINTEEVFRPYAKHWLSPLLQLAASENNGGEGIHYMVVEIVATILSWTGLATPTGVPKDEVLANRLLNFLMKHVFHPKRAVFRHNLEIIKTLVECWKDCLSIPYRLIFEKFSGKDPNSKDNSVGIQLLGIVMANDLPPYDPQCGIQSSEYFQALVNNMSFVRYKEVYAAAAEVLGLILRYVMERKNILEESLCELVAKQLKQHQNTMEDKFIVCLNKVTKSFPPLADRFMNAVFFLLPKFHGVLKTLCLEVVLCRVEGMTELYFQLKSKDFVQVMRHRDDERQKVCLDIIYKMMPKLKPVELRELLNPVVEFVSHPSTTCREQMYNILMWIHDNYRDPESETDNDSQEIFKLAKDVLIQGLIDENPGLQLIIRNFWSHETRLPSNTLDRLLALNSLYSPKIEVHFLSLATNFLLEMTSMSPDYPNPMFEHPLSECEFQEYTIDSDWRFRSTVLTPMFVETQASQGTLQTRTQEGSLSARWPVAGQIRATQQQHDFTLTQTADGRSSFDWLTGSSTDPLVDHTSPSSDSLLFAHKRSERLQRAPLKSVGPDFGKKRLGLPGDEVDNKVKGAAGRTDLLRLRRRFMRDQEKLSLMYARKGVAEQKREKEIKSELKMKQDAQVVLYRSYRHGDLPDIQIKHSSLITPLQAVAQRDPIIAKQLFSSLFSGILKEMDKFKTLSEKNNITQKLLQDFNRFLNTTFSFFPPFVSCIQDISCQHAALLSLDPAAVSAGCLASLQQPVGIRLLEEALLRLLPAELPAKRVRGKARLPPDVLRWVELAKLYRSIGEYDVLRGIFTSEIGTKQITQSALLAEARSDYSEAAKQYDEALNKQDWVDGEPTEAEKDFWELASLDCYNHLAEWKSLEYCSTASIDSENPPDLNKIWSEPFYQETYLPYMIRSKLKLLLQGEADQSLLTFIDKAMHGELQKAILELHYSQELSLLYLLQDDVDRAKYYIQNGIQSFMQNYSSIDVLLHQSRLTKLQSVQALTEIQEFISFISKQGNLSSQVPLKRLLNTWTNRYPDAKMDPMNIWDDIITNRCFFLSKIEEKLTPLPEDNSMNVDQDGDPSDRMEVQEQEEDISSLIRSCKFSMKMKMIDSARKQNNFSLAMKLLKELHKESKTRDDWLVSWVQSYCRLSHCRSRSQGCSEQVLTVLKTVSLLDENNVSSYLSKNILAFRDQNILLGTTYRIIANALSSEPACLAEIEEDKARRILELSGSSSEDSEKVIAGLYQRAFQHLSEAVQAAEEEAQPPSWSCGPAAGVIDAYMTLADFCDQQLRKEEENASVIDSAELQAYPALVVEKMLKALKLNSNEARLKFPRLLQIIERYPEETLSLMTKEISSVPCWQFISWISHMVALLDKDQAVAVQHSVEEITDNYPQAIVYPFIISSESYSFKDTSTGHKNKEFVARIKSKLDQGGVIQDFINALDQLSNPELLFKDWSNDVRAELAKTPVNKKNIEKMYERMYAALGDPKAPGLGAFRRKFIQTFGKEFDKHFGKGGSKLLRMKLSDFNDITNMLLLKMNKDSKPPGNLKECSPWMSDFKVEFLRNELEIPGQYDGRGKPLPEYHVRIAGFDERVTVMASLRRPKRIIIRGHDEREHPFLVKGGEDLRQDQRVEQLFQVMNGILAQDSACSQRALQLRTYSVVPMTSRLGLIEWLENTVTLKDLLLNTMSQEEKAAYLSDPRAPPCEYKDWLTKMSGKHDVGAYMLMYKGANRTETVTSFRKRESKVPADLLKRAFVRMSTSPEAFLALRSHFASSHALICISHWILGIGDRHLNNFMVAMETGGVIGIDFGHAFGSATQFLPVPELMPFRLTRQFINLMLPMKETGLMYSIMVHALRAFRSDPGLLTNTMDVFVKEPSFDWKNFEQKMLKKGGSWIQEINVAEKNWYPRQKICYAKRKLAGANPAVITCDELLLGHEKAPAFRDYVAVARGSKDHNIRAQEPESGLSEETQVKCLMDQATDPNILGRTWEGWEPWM

Row | Compound | Mean Inhib (%) [1] | Mean Inhib (%) [2] | Mean Inhib (%) [3] | Mean Inhib (%) [4] | Mean Inhib (%) [5] | Mean Inhib (%) [6] | Mean Inhib (%) [7] | Mean Inhib (%) [8, 28] | Mean Inhib (%) [8, 29] | Mean Inhib (%) [9] | Mean Inhib (%) [10] | Mean Inhib (%) [11] | Mean Inhib (%) [12] | Mean Inhib (%) [13] | Mean Inhib (%) [14] | Mean Inhib (%) [15] | Mean Inhib (%) [16] | Mean Inhib (%) [17] | Mean Inhib (%) [18] | Mean Inhib (%) [19] | other results
1 | Cc1ccc(NC(=O)c2ccnc(N3CCOCC3)c2)cc1Nc1ccnc(N2CC(C)OC(C)C2)n1 (stereo not shown) [compound 3] | 0.9% | 10.0% | 8.1% | 2.2% | 0.4% | 6.9% | 10.8% | −0.2% | 10.6% | 13.7% | −3.4% | 8.9% | 16.8% | 1.4% | −2.4% | 2.2% | 11.9% | 45.9% | 1.8% | 3.3% | Mean Inhib (%) [20]: 1.3%; Mean Inhib (%) [21, 30]: 1.7%; Mean Inhib (%) [21, 31]: −1.0%; Mean Inhib (%) [22]: −3.1%; Mean Inhib (%) [23]: 1.2%; Mean Inhib (%) [24]: −9.0%; Mean Inhib (%) [25]: 18.8%; Mean Inhib (%) [26]: 3.9%; Mean Inhib (%) [27]: −0.5%
2 | Cc1cc(Oc2ccnc(Nc3ccc(S(N)(=O)=O)cc3)c2)c(-c2ccccn2)nc1C [compound 65] | 9.6% | 6.3% | 0.3% | −0.5% | −1.2% | 47.0% | 30.7% | 5.5% | 1.1% | 13.9% | 1.0% | 4.7% | 12.1% | 58.1% | −2.9% | −5.0% | 4.2% | 1.6% | 14.0% | −11.8% | Mean Inhib (%) [20]: 1.2%; Mean Inhib (%) [21, 30]: −0.2%; Mean Inhib (%) [21, 31]: 10.4%; Mean Inhib (%) [22]: 8.7%; Mean Inhib (%) [23]: −0.9%; Mean Inhib (%) [24]: 0.5%; Mean Inhib (%) [25]: 12.2%; Mean Inhib (%) [26]: 4.1%; Mean Inhib (%) [27]: 1.6%
